The numbers were not newly measured in patent US11116769B2, “Tadalafil free base-containing film dosage form containing polyethylene glycol-based polymer and/or vinyl pyrrolidone-based polymer as dispersion stabilizer” (CTC BIO, INC., priority 2013, dated 2021), which cites them from elsewhere.

On to `CN1CC(=O)N2[C@H](c3ccc4c(c3)OCO4)c3[nH]c4ccccc4c3C[C@@H]2C1=O` [Tadalafil, (6R-trans)-6-(1,3-benzodioxol-5-yl)-2,3,6,7,12,12a-hexahydro-2-methyl-pyrazino[1′,2′:1,6]pyrido[3,4-b]indole-1,4-dione], for which the “solubility in organic solvents” value (some organic solvents such as methanol, ethanol and acetone) was “slightly soluble”. For the same compound, the “solubility in water” value (water) was “practically insoluble”. Moreover, for the setting “water at 25° C., from U.S. Pat. No. 6,841,167”, the water solubility entry was “about 2 μg per 1 milliliter (mL)”.
